In this test the test system is BDF1 mice, P388 leukemia ip, median survival T/C. As to the kind of experiment: NCI In Vivo Anticancer Drug Screen. Data for tumor model P388 Leukemia (intraperitoneal) in B6D2F1 (BDF1) mice. As to conditions: endpoint: median survival time, higher = longer survival. An outline of the steps: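 Transplantable tumour in mice; compound vs vehicle dosing; survival scored; ratio of treated to control reported.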

Setting [1] is: dose: 100.0 mg/kg/injection, schedule: Q01DX009 (ip), vehicle: saline with Tween-80.
Setting [2] is: dose: 200.0 mg/kg/injection, schedule: Q01DX009 (ip), vehicle: saline with Tween-80.
Where [3] appears, read: dose: 100.0 mg/kg/injection, schedule: Q04DX003 (ip), vehicle: saline.
The mark [4] stands for this setting: dose: 200.0 mg/kg/injection, schedule: Q04DX003 (ip), vehicle: saline.
Setting [5] is: dose: 400.0 mg/kg/injection, schedule: Q04DX003 (ip), vehicle: saline.
The mark [6] stands for this setting: dose: 50.0 mg/kg/injection, schedule: Q04DX003 (ip), vehicle: saline with Tween-80.
Where [7] appears, read: dose: 100.0 mg/kg/injection, schedule: Q04DX003 (ip), vehicle: saline with Tween-80.
[8] abbreviates: dose: 200.0 mg/kg/injection, schedule: Q04DX003 (ip), vehicle: saline with Tween-80.
Where [9] appears, read: dose: 400.0 mg/kg/injection, schedule: Q04DX003 (ip), vehicle: saline with Tween-80.
Where [10] appears, read: dose: 25.0 mg/kg/injection, schedule: Q04DX003 (ip), vehicle: saline with Tween-80.
[11] abbreviates: dose: 20.0 mg/kg/injection, schedule: Q01DX009 (ip), vehicle: saline with Tween-80.

Several values for one entry are separate records, joined by “and”; a condition that tells them apart may be missing. Identical values can stand only once. Toxic doses and inconclusive results are not listed.

In the case of `COC(=O)C(CCSC)NC(=O)CNC(=O)OC(C)(C)C` (configuration not stated), the T/C was 100 % of control (dose: 50.0 mg/kg/injection, schedule: Q01DX005 (ip), vehicle: saline with Tween-80); 105 % of control (dose: 100.0 mg/kg/injection, schedule: Q01DX005 (ip), vehicle: saline with Tween-80); 102 % of control (dose: 200.0 mg/kg/injection, schedule: Q01DX005 (ip), vehicle: saline with Tween-80).

As to `NC1C(O)C(O)C(Nc2ncnc3nc[nH]c23)OC1C(O)CO` (configuration not stated), the T/C (dose: 1.5 mg/kg/injection, schedule: Q01DX010 (ip), vehicle: saline) is 105 % of control; the T/C (dose: 3.0 mg/kg/injection, schedule: Q01DX010 (ip), vehicle: saline) was 105 % of control; the T/C (dose: 6.0 mg/kg/injection, schedule: Q01DX010 (ip), vehicle: saline) is 100 % of control; the T/C (dose: 12.0 mg/kg/injection, schedule: Q01DX010 (ip), vehicle: saline) was 95 % of control; the T/C (dose: 24.0 mg/kg/injection, schedule: Q01DX010 (ip), vehicle: saline) is 110 % of control; the T/C (dose: 48.0 mg/kg/injection, schedule: Q01DX010 (ip), vehicle: saline) was 105 % of control.

Regarding `O=C(c1cccs1)C1Cc2ccccc2C1=O` (configuration not stated), the T/C is, setting by setting: under setting [1], 100 % of control; under setting [2], 116 % of control; (dose: 400.0 mg/kg/injection, schedule: Q01DX009 (ip), vehicle: saline with Tween-80) 100 % of control.

Consider `CCOc1ccc2nc3cc(N)ccc3c(N)c2c1`, for which the T/C (dose: 44.0 mg/kg/injection, schedule: Q04DX003 (ip), vehicle: saline) is 118 % of control; the T/C (dose: 66.0 mg/kg/injection, schedule: Q04DX003 (ip), vehicle: saline) was 118 % of control; the T/C under setting [3] is 118 % of control; the T/C under setting [4] was 117 % of control; the T/C under setting [5] is 86 % of control.

As to `CC[n+]1cc(-c2ccc(NC(=O)/C=C\c3ccc(C(=O)Nc4ccc(-c5c[n+](CC)c(N)nc5N)cc4)cc3)cc2)c(N)nc1N`, the T/C reads like this: (dose: 33.0 mg/kg/injection, schedule: Q04DX003 (ip), vehicle: saline with Tween-80) 195 % of control; under setting [6], 272 % of control; (dose: 75.0 mg/kg/injection, schedule: Q04DX003 (ip), vehicle: saline with Tween-80) 272 % of control.

On to `CC(C)Cc1c(N)nc(=O)[nH]c1C(=O)O`, for which the T/C reads like this: (dose: 50.0 mg/kg/injection, schedule: Q04DX003 (ip), vehicle: Klucel (hydroxypropylcellulose) (HPC)) 109 % of control; (dose: 100.0 mg/kg/injection, schedule: Q04DX003 (ip), vehicle: Klucel (hydroxypropylcellulose) (HPC)) 95 % of control; (dose: 200.0 mg/kg/injection, schedule: Q04DX003 (ip), vehicle: Klucel (hydroxypropylcellulose) (HPC)) 100 % of control.

Take `Cc1nc(N)c(Cl)nc1C`: the T/C is, setting by setting: under setting [6], 102 % of control and 104 % of control; under setting [7], 103 % of control; (dose: 150.0 mg/kg/injection, schedule: Q04DX003 (ip), vehicle: saline with Tween-80) 103 % of control; under setting [8], 95 % of control and 104 % of control; under setting [9], 104 % of control.

Turning to `Cc1cc([N+](=O)[O-])cc(C)c1OC(=O)c1ccc(N=C(N)N)cc1`, the T/C is, setting by setting: (dose: 6.25 mg/kg/injection, schedule: Q01DX009 (ip), vehicle: saline) 93 % of control; (dose: 12.5 mg/kg/injection, schedule: Q01DX009 (ip), vehicle: saline) 101 % of control; (dose: 12.5 mg/kg/injection, schedule: Q04DX003 (ip), vehicle: saline) 104 % of control; (dose: 25.0 mg/kg/injection, schedule: Q01DX009 (ip), vehicle: saline) 97 % of control; (dose: 25.0 mg/kg/injection, schedule: Q04DX003 (ip), vehicle: saline) 102 % of control; (dose: 50.0 mg/kg/injection, schedule: Q01DX009 (ip), vehicle: saline) 95 % of control. The T/C runs as follows: (dose: 50.0 mg/kg/injection, schedule: Q04DX003 (ip), vehicle: saline) 101 % of control; under setting [3], 95 % of control.

Regarding `c1ccc([B-]2([C+]3CCCCC3)N3CCCCC3C3CCCCN32)cc1` (configuration not stated), the T/C by setting is: (dose: 12.5 mg/kg/injection, schedule: Q01DX009 (ip), vehicle: Klucel (hydroxypropylcellulose) (HPC)) 119 % of control; (dose: 25.0 mg/kg/injection, schedule: Q01DX009 (ip), vehicle: Klucel (hydroxypropylcellulose) (HPC)) 119 % of control.

For `CCOC(=O)c1c[nH]c(=O)c([N+](=O)[O-])c1O`, the T/C reads like this: under setting [1], 96 % of control; under setting [7], 108 % of control; under setting [8], 95 % of control; under setting [9], 112 % of control.

Turning to `COC(=O)c1[nH]c(=O)[nH]c(=O)c1F`, the T/C under setting [10] was 113 % of control, the T/C under setting [7] was 122 % of control and the T/C under setting [8] was 90 % of control.

Take `Cc1ccc(-c2nc3sccn3c2/C=N/NC(N)=S)cc1`: the T/C (dose: 100.0 mg/kg/injection, schedule: Q01DX001 (ip), vehicle: Klucel (hydroxypropylcellulose) (HPC)) was 100 % of control and the T/C (dose: 400.0 mg/kg/injection, schedule: Q01DX001 (ip), vehicle: Klucel (hydroxypropylcellulose) (HPC)) was 95 % of control.

Regarding `CCN(CC)Cc1nc2nc(Cl)c(Cl)nc2[nH]1`, the T/C by setting is: (dose: 5.0 mg/kg/injection, schedule: Q01DX009 (ip), vehicle: saline with Tween-80) 112 % of control; (dose: 10.0 mg/kg/injection, schedule: Q01DX009 (ip), vehicle: saline with Tween-80) 114 % of control; (dose: 12.5 mg/kg/injection, schedule: Q04DX003 (ip), vehicle: saline with Tween-80) 114 % of control; under setting [11], 98 % of control; under setting [10], 100 % of control and 114 % of control; under setting [6], 88 % of control and 100 % of control and 104 % of control.

Turning to `CN(C)c1nc(N(C)C)nc(N(C)C)n1`, the T/C runs as follows: (dose: 18.8 mg/kg/injection, schedule: Q01DX010 (ip), vehicle: saline) 100 % of control; (dose: 20.0 mg/kg/injection, schedule: Q01DX009 (ip), vehicle: Klucel (hydroxypropylcellulose) (HPC)) 95 % of control; under setting [11], 104 % of control; (dose: 25.0 mg/kg/injection, schedule: Q01DX001 (ip), vehicle: Klucel (hydroxypropylcellulose) (HPC)) 100 % of control; (dose: 25.0 mg/kg/injection, schedule: Q04DX002 (ip), vehicle: Klucel (hydroxypropylcellulose) (HPC)) 101 % of control and 107 % of control; (dose: 25.0 mg/kg/injection, schedule: Q04DX003 (ip), vehicle: Klucel (hydroxypropylcellulose) (HPC)) 96 % of control and 100 % of control. For the same compound, the T/C was 100 % of control and 110 % of control (dose: 37.5 mg/kg/injection, schedule: Q01DX010 (ip), vehicle: saline); 100 % of control (dose: 40.0 mg/kg/injection, schedule: Q01DX009 (ip), vehicle: Klucel (hydroxypropylcellulose) (HPC)); 113 % of control (dose: 40.0 mg/kg/injection, schedule: Q01DX009 (ip), vehicle: saline with Tween-80); 107 % of control (dose: 59.0 mg/kg/injection, schedule: Q01DX009 (ip), vehicle: saline with Tween-80); 100 % of control and 115 % of control (dose: 75.0 mg/kg/injection, schedule: Q01DX010 (ip), vehicle: saline); 90 % of control (dose: 80.0 mg/kg/injection, schedule: Q01DX009 (ip), vehicle: Klucel (hydroxypropylcellulose) (HPC)). In addition, the T/C by setting is: (dose: 80.0 mg/kg/injection, schedule: Q01DX009 (ip), vehicle: saline with Tween-80) 99 % of control; (dose: 89.0 mg/kg/injection, schedule: Q01DX009 (ip), vehicle: saline with Tween-80) 107 % of control; (dose: 133.0 mg/kg/injection, schedule: Q01DX009 (ip), vehicle: saline with Tween-80) 115 % of control; (dose: 150.0 mg/kg/injection, schedule: Q01DX010 (ip), vehicle: saline) 100 % of control and 104 % of control; (dose: 160.0 mg/kg/injection, schedule: Q01DX009 (ip), vehicle: Klucel (hydroxypropylcellulose) (HPC)) 104 % of control; under setting [2], 107 % of control.

For the compound `COc1ccc(C(O)CN)cc1` (configuration not stated), the T/C by setting is: under setting [3], 98 % of control; under setting [4], 97 % of control; under setting [5], 96 % of control.

Turning to `CC1(C)CCCC(C(Cc2ccc3ccccc3n2)c2ccccc2)C1=O` (configuration not stated), the T/C is, setting by setting: (dose: 100.0 mg/kg/injection, schedule: Q01DX001 (ip), vehicle: saline with Tween-80) 98 % of control; (dose: 200.0 mg/kg/injection, schedule: Q01DX001 (ip), vehicle: saline with Tween-80) 96 % of control; (dose: 400.0 mg/kg/injection, schedule: Q01DX001 (ip), vehicle: saline with Tween-80) 88 % of control.

The values are drawn from PubChem BioAssay AID328 (DTP/NCI, 2004).
